From ChEMBL document CHEMBL1137598, “Synthesis and structure-activity relationship of N-acyl-Gly-, N-acyl-Sar- and N-blocked-boroPro inhibitors of FAP, DPP4, and POP” (Bioorg Med Chem Lett, 2007) come the findings set out here.

Test [1] addresses T1, Prolyl endopeptidase (Homo sapiens, UniProt P48147).
T1 sequence (P48147 whole entry): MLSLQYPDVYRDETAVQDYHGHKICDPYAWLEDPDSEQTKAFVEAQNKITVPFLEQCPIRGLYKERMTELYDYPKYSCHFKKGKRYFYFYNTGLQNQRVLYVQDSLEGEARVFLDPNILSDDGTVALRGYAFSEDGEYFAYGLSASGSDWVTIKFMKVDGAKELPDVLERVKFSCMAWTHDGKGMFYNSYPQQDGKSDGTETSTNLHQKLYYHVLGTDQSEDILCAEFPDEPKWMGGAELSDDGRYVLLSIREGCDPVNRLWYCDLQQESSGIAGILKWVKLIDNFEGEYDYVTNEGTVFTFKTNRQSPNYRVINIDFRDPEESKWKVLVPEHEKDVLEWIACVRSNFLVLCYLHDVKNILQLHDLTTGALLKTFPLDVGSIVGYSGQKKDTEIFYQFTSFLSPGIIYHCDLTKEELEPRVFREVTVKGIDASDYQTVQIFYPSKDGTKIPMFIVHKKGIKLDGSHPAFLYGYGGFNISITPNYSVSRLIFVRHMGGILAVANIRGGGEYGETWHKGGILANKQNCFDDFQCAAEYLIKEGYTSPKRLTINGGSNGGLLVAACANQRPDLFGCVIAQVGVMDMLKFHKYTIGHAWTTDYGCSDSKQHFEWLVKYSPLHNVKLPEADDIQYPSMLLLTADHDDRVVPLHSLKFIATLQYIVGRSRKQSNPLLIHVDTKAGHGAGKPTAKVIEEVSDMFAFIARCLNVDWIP
The test is described as follows: Inhibitory constant against POP.

For test [2], the target named is Dipeptidyl peptidase 4 (Homo sapiens) (UniProt P27487). The test is described as follows: Inhibition of DPP-4 at 500uM.

Usually pKi stands for the Ki on a negative log10 scale, so that one unit is a factor of ten. Low values mean a high Ki, high ones a low Ki. The term inhibition denotes the share of the control response that was lost under treatment. A low value points to a response near the control.

pKi: −log10 of the molar value.

Chain of Dipeptidyl peptidase 4 (Homo sapiens) (P27487 whole entry, looked up): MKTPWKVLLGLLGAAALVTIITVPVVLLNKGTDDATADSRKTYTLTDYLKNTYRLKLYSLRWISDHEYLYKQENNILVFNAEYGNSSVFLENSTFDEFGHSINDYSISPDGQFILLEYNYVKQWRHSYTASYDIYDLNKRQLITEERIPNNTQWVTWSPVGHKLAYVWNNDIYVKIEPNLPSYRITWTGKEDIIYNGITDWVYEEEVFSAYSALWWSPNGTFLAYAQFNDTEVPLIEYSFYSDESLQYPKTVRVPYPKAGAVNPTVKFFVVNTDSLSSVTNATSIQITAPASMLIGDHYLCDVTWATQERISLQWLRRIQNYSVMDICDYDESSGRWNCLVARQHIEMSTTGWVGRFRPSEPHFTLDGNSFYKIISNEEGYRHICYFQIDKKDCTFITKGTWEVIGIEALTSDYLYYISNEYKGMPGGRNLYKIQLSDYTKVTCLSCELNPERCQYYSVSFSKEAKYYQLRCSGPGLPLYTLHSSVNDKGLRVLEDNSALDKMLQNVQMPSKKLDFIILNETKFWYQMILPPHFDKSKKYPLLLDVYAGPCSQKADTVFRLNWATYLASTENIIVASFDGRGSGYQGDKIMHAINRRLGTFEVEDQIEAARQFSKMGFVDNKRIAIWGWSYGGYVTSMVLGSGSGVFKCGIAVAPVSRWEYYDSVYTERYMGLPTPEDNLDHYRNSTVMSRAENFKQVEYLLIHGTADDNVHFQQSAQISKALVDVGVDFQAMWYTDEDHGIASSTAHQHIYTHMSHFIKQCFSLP

Compound `CC(C)C(=O)N(C)CC(=O)N1CCC[C@H]1B(O)O` showed a pKi in test [1] of 7.89.
In the case of `CC(=O)N[C@H](C)C(=O)N1CCC[C@H]1B(O)O`, the inhibition in test [2] stood at 17%.
On to `CS(=O)(=O)NCC(=O)N1CCC[C@H]1B(O)O`, for which the pKi in test [1] was 5.87.
